Test results taken from patent US20190152992A1, “BENZODIOXANE DERIVATIVES AND THEIR PHARMACEUTICAL USE” (Orion Corporation, priority 2016, published 2019).

How the values were obtained:
[1] = target: T1, human alpha2A receptors (Homo sapiens, UniProt P08913); test: cell-based
T1 sequence (P08913 1-465): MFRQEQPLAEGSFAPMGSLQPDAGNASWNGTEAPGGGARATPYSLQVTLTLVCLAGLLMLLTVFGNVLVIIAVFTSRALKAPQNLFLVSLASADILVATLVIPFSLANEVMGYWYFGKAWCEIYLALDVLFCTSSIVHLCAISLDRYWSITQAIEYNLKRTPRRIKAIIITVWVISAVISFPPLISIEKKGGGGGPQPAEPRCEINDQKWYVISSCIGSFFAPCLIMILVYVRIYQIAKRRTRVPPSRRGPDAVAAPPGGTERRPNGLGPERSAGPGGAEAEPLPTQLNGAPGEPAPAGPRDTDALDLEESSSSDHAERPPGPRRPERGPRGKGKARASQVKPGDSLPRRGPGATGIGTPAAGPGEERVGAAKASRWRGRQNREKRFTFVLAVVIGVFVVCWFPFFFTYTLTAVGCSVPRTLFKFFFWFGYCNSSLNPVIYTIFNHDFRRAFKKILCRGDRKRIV
Protocol: Experiment 1: Determination of alpha2A and alpha2C Antagonistic Activity In Vitro
The growth medium was removed and the cells were incubated with the test compounds and the FLIPR Calcium 6 Assay reagent (Molecular Devices, CA, USA) for 2 h at 37° C. in dark. The test compounds (concentrations in cells 100 pM-10 μM) were dissolved in Probenecid-Ringer consisting of 150 mM NaCl, 3 mM KCl, 1.2 mM MgCl2, 1 mM CaCl2, 5 mM glucose, 20 mM HEPES and 2.5 mM probenecid (pH 7.4 adjusted with 1.0 M NaOH). […] All experiments were performed at 37° C. For agonism measurements the test compounds dissolved in Probenecid-Ringer were applied by FLIPR Tetra at 15 s time point. In order to determine antagonism, the cells were stimulated either with 100 nM adrenaline or noradrenaline and the test compounds were added to the cells 2 h before the experiment with the FLIPR Calcium 6 Assay reagent. […] Typically, there were four replicates at each concentration and six different dose levels. […] The minimum fluorescence value subtracted from the maximum value for each well was used in the calculations. ScreenWorks version 4.0 software was used for analyzing the results. Fitting of the antagonist dose-response results was performed with the free Hill equation and the IC50 values were fitted with IDBS XE software using model 200: y=(A+(B/(1+((x/C)̂D)))), where A is the curve maximum, B the curve minimum and C equals the EC50 value. D is slope factor (Hill). Kb was calculated with the Cheng-Prusoff equation Kb=A/((B/C)+1), where A is the IC50 of antagonist, B the concentration of agonist and C the EC50 of the agonist.

[2] = target: T2, human alpha2C receptors (Homo sapiens, UniProt P18825); test: Determination of alpha2C antagonistic activity in vitro (FLIPR calcium assay); details: for Kb: Alpha 2C Adrenaline Kb, Kb calculated from IC50 with the Cheng-Prusoff equation, adrenaline as agonist, CHO cells, human alpha2C
T2 sequence (P18825 1-462): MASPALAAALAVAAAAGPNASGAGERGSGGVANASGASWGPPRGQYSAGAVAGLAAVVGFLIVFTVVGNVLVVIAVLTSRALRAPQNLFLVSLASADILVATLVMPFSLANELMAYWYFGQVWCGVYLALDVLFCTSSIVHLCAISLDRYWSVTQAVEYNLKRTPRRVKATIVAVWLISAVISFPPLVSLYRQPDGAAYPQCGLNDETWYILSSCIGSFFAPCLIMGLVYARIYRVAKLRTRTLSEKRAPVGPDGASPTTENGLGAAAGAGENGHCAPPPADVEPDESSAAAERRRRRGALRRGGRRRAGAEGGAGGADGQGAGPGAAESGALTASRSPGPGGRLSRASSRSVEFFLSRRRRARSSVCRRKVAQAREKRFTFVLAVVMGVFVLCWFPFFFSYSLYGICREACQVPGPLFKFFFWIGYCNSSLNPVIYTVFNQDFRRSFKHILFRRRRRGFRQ

Row | Structure (SMILES) | IC50 [1] [nM] | Kb [1] [nM] | IC50 [2] [nM] | Kb [2] [nM]
1 | C[C@@H](c1ccccc1)N1C(=O)C(=O)N([C@H]2CCCN(C[C@H]3COc4ccccc4O3)C2)C1=O [compound 133, 1-((S)-1-(((S)-2,3-Dihydrobenzo[b][1,4]dioxin-2-yl)methyl)-piperidin-3-yl)-3-((S)-1-phenylethyl)imidazolidine-2,4,5-trione] | 807 | 36 | < 0.01 | < 0.001
2 | CC1(C)CC(=O)N([C@H]2CCCN(C[C@H]3COc4ccccc4O3)C2)C1 [example 1, 1-((S)-1-(((S)-2,3-Dihydrobenzo[b][1,4]dioxin-2-yl)methyl)piperidin-3-yl)-4,4-dimethylpyrrolidin-2-one] | > 10000 | > 449 | 0.32 | 0.03
3 | O=C1NC(c2ccccc2)(c2ccccc2)CN1[C@H]1CCCN(C[C@H]2COc3ccccc3O2)C1 [example 2, 1-((S)-1-(((S)-2,3-Dihydrobenzo[b][1,4]dioxin-2-yl)methyl)piperidin-3-yl)-4,4-diphenylimidazolidin-2-one] | 1330 | 60 | < 0.1 | < 0.01
4 | C[C@H]1C(=O)N([C@H]2CCCN(C[C@H]3COc4ccccc4O3)C2)C(=O)[C@@H]1C [example 4, (3R,4R)-1-((S)-1-(((S)-2,3-Dihydrobenzo[b][1,4]dioxin-2-yl)methyl)piperidin-3-yl)-3,4-dimethylpyrrolidine-2,5-dione] | > 10000 | > 449 | 1.77 | 0.18
5 | CCC1(CC)OC(=O)N([C@H]2CCCN(C[C@H]3COc4ccccc4O3)C2)C1=O [example 5, 3-((S)-1-(((S)-2,3-Dihydrobenzo[b][1,4]dioxin-2-yl)methyl)piperidin-3-yl)-5,5-diethyloxazolidine-2,4-dione] | 1300 | 58 | 0.13 | 0.01
6 | CC(C)N1C(=O)N([C@H]2CCCN(C[C@H]3COc4ccccc4O3)C2)C[C@H]1c1ccccc1 [example 6, (R)-1-((S)-1-(((S)-2,3-Dihydrobenzo[b][1,4]dioxin-2-yl)methyl)-piperidin-3-yl)-3-isopropyl-4-phenylimidazolidin-2-one] | 9870 | 443 | 672 | 67.7
7 | CC(C)N1C(=O)N([C@H]2CCCN(C[C@H]3COc4ccccc4O3)C2)C[C@@H]1c1ccccc1 [example 7, (S)-1-((S)-1-(((S)-2,3-Dihydrobenzo[b][1,4]dioxin-2-yl)methyl)piperidin-3-yl)-3-isopropyl-4-phenylimidazolidin-2-one] | 1730 | 78 | < 0.1 | < 0.01
8 | O=C1c2cccnc2CN1[C@H]1CCCN(C[C@H]2COc3ccccc3O2)C1 [example 10, 6-((S)-1-(((S)-2,3-Dihydrobenzo[b][1,4]dioxin-2-yl)methyl)piperidin-3-yl)-6,7-dihydro-5H-pyrrolo[3,4-b]pyridin-5-one] | > 10000 | > 449 | 3.78 | 0.379
9 | O=C1c2cnccc2CN1[C@H]1CCCN(C[C@H]2COc3ccccc3O2)C1 [example 11, 2-((S)-1-(((S)-2,3-Dihydrobenzo[b][1,4]dioxin-2-yl)methyl)piperidin-3-yl)-1H-pyrrolo[3,4-c]pyridin-3(2H)-one] | > 10000 | > 449 | 127 | 12.8
10 | CSc1ncc2c(n1)C(=O)N([C@H]1CCCN(C[C@H]3COc4ccccc4O3)C1)C2 [example 12, 6-((S)-1-(((S)-2,3-Dihydrobenzo[b][1,4]dioxin-2-yl)methyl)piperidin-3-yl)-2-(methylthio)-5H-pyrrolo[3,4-d]pyrimidin-7(6H)-one] | > 10000 | > 449 | 509 | 51.2
11 | O=C1c2ncsc2CN1[C@H]1CCCN(C[C@H]2COc3ccccc3O2)C1 [example 13, 5-((S)-1-(((S)-2,3-Dihydrobenzo[b][1,4]dioxin-2-yl)methyl)piperidin-3-yl)-5,6-dihydro-4H-pyrrolo[3,4-d]thiazol-4-one] | > 10000 | > 449 | 22.4 | 2.26

Continued, values first:

Row | IC50 [1] [nM] | Kb [1] [nM] | IC50 [2] [nM] | Kb [2] [nM] | Structure (SMILES)
12 | > 10000 | > 449 | 9.26 | 0.93 | CC1CCN([C@H]2CCCN(C[C@H]3COc4ccccc4O3)C2)C1=O (single isomer, unassigned; diastereomer 1) [example 98]
13 | 5840 | 262 | 0.048 | 0.005 | C[C@]1(c2ccccc2)CCN([C@H]2CCCN(C[C@H]3COc4ccccc4O3)C2)C1=O [example 14, (R)-1-((S)-1-(((S)-2,3-Dihydrobenzo[b][1,4]dioxin-2-yl)methyl)piperidin-3-yl)-3-methyl-3-phenylpyrrolidin-2-one]
14 | > 10000 | > 449 | 363 | 36.6 | C[C@@]1(c2ccccc2)CCN([C@H]2CCCN(C[C@H]3COc4ccccc4O3)C2)C1=O [example 15, (S)-1-((S)-1-(((S)-2,3-Dihydrobenzo[b][1,4]dioxin-2-yl)methyl)-piperidin-3-yl)-3-methyl-3-phenylpyrrolidin-2-one]
15 | > 10000 | > 449 | 0.57 | 0.06 | CCN1CCN([C@H]2CCCN(C[C@H]3COc4ccccc4O3)C2)C1=O [example 16, 1-((S)-1-(((S)-2,3-Dihydrobenzo[b][1,4]dioxin-2-yl)methyl)piperidin-3-yl)-3-ethylimidazolidin-2-one]
16 | 8510 | 382 | 0.235 | 0.024 | CC(C)(C)C1CN([C@H]2CCCN(C[C@H]3COc4ccccc4O3)C2)C(=O)O1 (stereo partly drawn) [example 18, 5-tert-Butyl-3-((S)-1-(((S)-2,3-dihydrobenzo[b][1,4]dioxin-2-yl)methyl)piperidin-3-yl)oxazolidin-2-one]
17 | > 10000 | > 449 | 7.65 | 0.771 | CC(C)C1CN([C@H]2CCCN(C[C@H]3COc4ccccc4O3)C2)C(=O)O1 (stereo partly drawn) [example 19, 3-((S)-1-(((S)-2,3-Dihydrobenzo[b][1,4]dioxin-2-yl)methyl)piperidin-3-yl)-5-isopropyloxazolidin-2-one]
18 | > 10000 | > 449 | 6.91 | 0.696 | CC(=O)NCC1CN([C@H]2CCCN(C[C@H]3COc4ccccc4O3)C2)C(=O)O1 (stereo partly drawn) [example 20, N-((3-((S)-1-(((S)-2,3-Dihydrobenzo[b][1,4]dioxin-2-yl)methyl)piperidin-3-yl)-2-oxooxazolidin-5-yl)methyl)acetamide]
19 | 1400 | 63 | 1.9 | 0.191 | O=C1OC(c2ccc(F)cc2)CN1[C@H]1CCCN(C[C@H]2COc3ccccc3O2)C1 (stereo partly drawn) [example 21, 3-((S)-1-(((S)-2,3-Dihydrobenzo[b][1,4]dioxin-2-yl)methyl)piperidin-3-yl)-5-(4-fluorophenyl)oxazolidin-2-one]
20 | > 10000 | > 449 | < 0.01 | < 0.001 | CSc1ncc2c(n1)CN([C@H]1CCCN(C[C@H]3COc4ccccc4O3)C1)C2=O [example 22, 6-((S)-1-(((S)-2,3-Dihydrobenzo[b][1,4]dioxin-2-yl)methyl)piperidin-3-yl)-2-(methylthio)-6,7-dihydro-5H-pyrrolo[3,4-d]pyrimidin-5-one]
21 | > 10000 | > 449 | 18 | 1.81 | O=C1c2cncnc2CN1[C@H]1CCCN(C[C@H]2COc3ccccc3O2)C1 [example 23, 6-((S)-1-(((S)-2,3-Dihydrobenzo[b][1,4]dioxin-2-yl)methyl)piperidin-3-yl)-6,7-dihydro-5H-pyrrolo[3,4-d]pyrimidin-5-one]
22 | > 10000 | > 449 | 89.7 | 9.03 | Cn1ncc2c1C(=O)N([C@H]1CCCN(C[C@H]3COc4ccccc4O3)C1)C2 [example 24, 5-((S)-1-(((S)-2,3-Dihydrobenzo[b][1,4]dioxin-2-yl)methyl)piperidin-3-yl)-1-methyl-4,5-dihydropyrrolo[3,4-c]pyrazol-6(1H)-one]
23 | 535 | 24 | 19.4 | 1.95 | O=S1(=O)Cc2ccccc2N1[C@H]1CCCN(C[C@H]2COc3ccccc3O2)C1 [example 25, 1-((S)-1-(((S)-2,3-Dihydrobenzo[b][1,4]dioxin-2-yl)methyl)piperidin-3-yl)-1,3-dihydrobenzo[c]isothiazole 2,2-dioxide]
